Source: patent US8859615B2, “Compounds, compositions and methods for reducing toxicity and treating or preventing diseases” (priority 2008, dated 2014)
Entries after “also recorded” stand apart in the source; their conditions may differ. Like-named read-outs stand apart in the source and are kept apart here.

Experiments:
[1] = test system: CCRF-CEM human T-cell acute lymphoblastic leukemia cells; assay: In vitro cytotoxicity against CCRF-CEM (XTT / CCK-8 tetrazolium assay, 72 hr); settings: for IC50: Homo sapiens
A-549 lung carcinoma = assay: Cytotoxicity against solid tumor cells (Table 4); format: cell-based; settings: Homo sapiens, A549, CCK-8, 72 hrs
Protocol: (§1) Compounds are also evaluated against A-549 lung carcinoma and SK-OV-3 ovarian adenocarcinoma cell lines using the methodology as for Table 3. The potency order for the compounds may vary in different tumor cell lines. […] Absorbance was measured using a Powerwave XS microplate spectrophotometer.

[2] = test system: SK-OV-3 ovarian adenocarcinoma; assay: Cytotoxicity against solid tumor cells (Table 4); format: cell-based; settings: Homo sapiens, CCK-8, 72 hrs
Protocol: as §1

[3] = test system: human mammary carcinoma MX-1 xenografts; settings: 5FU 50 mg/kg i.v. QD×5
[4] = test system: human colon carcinoma HCT-116 xenografts; settings: mouse, in vivo
[5] = test system: human colon carcinoma HCT-116 xenografts; assay: Compound D with Iso-Oxazole-Fludelone or Isodehydelone in nude mice bearing HCT-116 xenografts
[6] = test system: human mammary carcinoma MX-1 cells; assay: In vitro drug combination (median-effect / combination index, DRI) against MX-1 cell growth (Tables 5, 5A); format: cell-based
Protocol: The data in Tables 2X, 3A-E, 4, 5, and 6 were obtained using the cell counting kit-8 (CCK-8) tetrazolium assay in a 96-well microplate. Five to seven concentrations of each compound in triplicate were used, and the IC50 values were determined by CompuSyn software automation (Chou T C. and Martin N. ComboSyn, Inc., 2006) based on the median-effect equation and plot (Chou T C. J. Theor. Biol. 59:235-276, 1976; Chou T C. Pharmacol. Rev. 58: 621-681, 2006). […] The r value defines the correlation coefficient of the median-effect plot which signifies the conformity to the mass-action law principle (Chou T C. J. Theor. Biol. 59:235-276, 1976; Chou T C. Pharmacol. Rev. 58:621-681, 2006). These parameters were determined by CompuSyn simulation (available at http://www.combosyn.com).
Efficacy of panaxytriol in combination with Fludelone (an illustrative tubulin-binding anticancer agent) was measured according to procedures described in more detail by Chou et al. (1984) Adv. Enz. Regul., 22:27-55, Chou et al. (1994) Nat'l Cancer Inst., 86:1517-1524, and Chou (2006) Pharmacological Reviews, […]:621-681. Software packages used for data analyses were CalcuSyn for Windows (Chou and Hayball., Multiple-drug dose effect analyzer and manual, Biosoft, Cambridge Place, Cambridge, U.K (1996)) and CompuSyn for Drug Combinations (Chou and Martin, Software for determination of synergism and antagonism and determination of IC50, ED50 and LD50, ComboSyn Inc., Paramus, N.J. (2005)). The entire contents of each of the above references are incorporated by reference in their entireties. […] DRI quantitates synergy as how many fold less of a dose is required to obtain a given level of effect for a combination of drugs versus the same effect for an individual component of the combination.

[7] = test system: human lymphoblastic leukemic T-cell growth; assay: Cytotoxic activity relative to stability during storage at −20° C. in DMSO (Table 10); format: cell-based; settings: Homo sapiens, CCRF-CEM, 72 h, XTT, 72 hr
[8] = test system: Rat pheochromocytoma cells (PC12 cells); assay: Neurite outgrowth with NGF; format: cell-based; settings: 50 ng/mL NGF, 60 μM panaxytriol, 96 hr, vs NGF only
Protocol: Rat pheochromocytoma cells (PC12 cells) were treated with 50 ng/mL of nerve growth factor (NGF) and with 60 μM panaxytriol for 96 hr. The cells were then compared with a similarly prepared control, lacking panaxytriol. […] This finding confirms that panaxytriol is useful for treating or preventing a neurotrophic disorder.

[9] = CCRF-CEM, 72 h, read-out: CCRF-CEM (IC50 in μM), Table 3A-2, CCK-8, 72-hr exposure
[10] = CCRF-CEM, 72 h, read-out: IC50 CCRF-CEM, Table 3D, CCK-8, 72-hr incubation
[11] = Table 5, fold dose reduction allowed in the Panaxytriol + Fludelone combination

## C=C[C@H](O)C#CC#CC[C@H]1OC(C)(C)O[C@@H]1CCCCCCC [Compound (D)]
[1]
  anti-cancer activity in the in vitro cytotoxicity assay: active against cancer
[1]; [9]
  IC50: 1.14 µM
[1]; [10]
  IC50: 0.478 µM
[1]; CCRF-CEM, read-out: IC50 (in μM), cytotoxic potency against cancer cell line growth in vitro, Table 3C, cell line not given
  IC50: 0.48 µM
[1]; Table 3A
  potency relative to Compound (A) in vitro: about 1.44 fold
[1]; Table 3A, CCRF-CEM
  analog is fold more potent (than Compound (A)): is 1.68-fold
A-549 lung carcinoma
  IC50: 2.85 µM
[2]
  IC50: 5.08 µM
[3]
  effect of co-treatment on acute body-weight decrease due to 5FU: did not significantly reduce
  effect of co-treatment on therapeutic effect of 5FU: not significantly increased
[4]
  effect of co-administration on iso-oxazole-fludelone toxicity (body weight): significantly reduces iso-oxazole-fludelone toxicity
[4]; po
  body weight retention during Isodehydelone treatment: retained their body weight significantly better
[5]; 10 mg/kg, Q3D×3, Q6D×3, i.v., FIGS. 4A-C
  effect on tumor size and body-weight: reduced the tumor size and increased the subject body-weight
[5]; FIG. 15, Compound (D) orally
  effect of oral administration on toxicity of isodehydelone: reduces the toxicity and lethality of isodehydelone alone
[5]; FIGS. 4A, 4B
  effect on therapeutic effect of Iso-oxazole-fludelone: significantly enhances the therapeutic effect of Iso-oxazole-fludelone

## C=C[C@@H](O)C#CC#CC[C@@H](O)[C@H](O)CCCCCCC [panaxytriol]
[1]; [9]
  IC50: 3.68 µM
[1]; CCRF-CEM, 72 h, read-out: IC50 CCRF-CEM, Table 3, XTT, 72-hour
  IC50: 12.1 ± 1.57 µM
[1]; [10]
  IC50: 5.04 ± 0.86 µM
[6]; Homo sapiens, MX1, 72 h, read-out: Dose-effect parameter Dm (IC50)
  IC50: 3.19 µM
[6]; [11]
  Dose-Reduction Index (DRI) at IC50: 2.66
  Dose-Reduction Index (DRI) at IC75: 2.12
  Dose-Reduction Index (DRI) at IC90: 1.70
  Dose-Reduction Index (DRI) at IC95: 1.46
[6]; panaxytriol + Fludelone combination, MX-1 cells
  dose-reduction index (DRI): 1.46-2.7
[7]; read-out: IC50 in μM CCRF-CEM, Table 10, Aug. 22, 2003 (Stored), same solution kept at −20° C. in DMSO
  IC50: 11 µM
[7]; read-out: IC50 in μM CCRF-CEM, Table 10, Jul. 25, 2003 (Fresh)
  IC50: 6.34 µM
[7]; read-out: IC50 in μM CCRF-CEM/VBL, Table 10, Aug. 22, 2003 (Stored), same solution kept at −20° C. in DMSO
  IC50: 19.4 µM
[7]; read-out: IC50 in μM CCRF-CEM/VBL, Table 10, Jul. 25, 2003 (Fresh)
  IC50: 4.71 ± 0.73 µM
[8]
  neurite outgrowth: enhanced neurite outgrowth; also recorded: significant neurite outgrowth
